Assays:
Format in all cases: in vivo
Poa annua = experiment: Pre-emergence glasshouse pot study, seedling emergence and growth (OECD guideline); details: for Mean Final Foliar Fresh Weights Expressed as Percentage of Untreated Controls / Mean Final Foliar Fresh Weights: Poa annua; for Mean Final Foliar Fresh Weights: 21 days after 50% emergence, untreated 0.90
Procedure: (§1) A study was carried out to determine the relative biological activity of the D and L isomers of Napropamide when applied pre-emergence to one monocotyledon and one dicotyledon species. Napropamide, containing 450 grammes active substance per liter (g a.s./L) formulated as a suspension concentrate and the D-isomer of Napropamide (1000 g a.s./L) were applied at a range of concentrations from 0.1575 to 1.26 kilograms of active substance per hectare (kg a.s/Ha).
(§2) EC50 values in kg a.s./Ha were calculated from the dose response data using final foliar fresh weight data for each species and was used to determine the relative biological activity of the D and L isomers of Napropamide. The methodology was based on the OECD guideline […], according to the revision of July 2006 for seedling emergence and growth. The study was conducted to GLP standards.
(§3) Seeds were sown directly into non-porous plastic pots containing the following mix of soil: 10 L of sterile loam+4 L of coarse grit (washed quartztite, nominal 4 mm)+10 L of sand. This soil mix was characterized as a sandy loam with an organic carbon content of 1.5% and pH of 7.2. Details of the plant species, number of seeds per pot and pot size are shown below. All seeds were sown 1-2 cm deep.
(§4) The highest concentration of Napropamide was prepared by measuring a calculated volume by weight and diluting with tap water to the full required volume. Lower concentrations were prepared by serial dilution with water. D-Napropamide was prepared by dissolving the calculated weight in acetone and adding water to give the full required volume in 50:50 acetone+water. Lower concentrations were prepared by serial dilution with 50:50 acetone+water. D-Napropamide dissolved completely.
(§5) The sprayer was calibrated within 24 hours prior to application by weight of 15 applications of water to six 86 mm ID petri dishes. The total weight of water over a known area enabled a simple calculation giving the volume rate to be made. The volume rate achieved was within the range specified in the study plan (200 L/Ha±10%).
(§6) Replication was 5 pots per treatment for each plant species. After application, pots were placed on the bench in glasshouse in randomized blocks. Plants were assessed for emergence, mortality and visual injury (expressed as a percentage of the untreated control: 0%=no injury, 1-39%=slight injury, 40-69%=moderate injury, 70-99%=severe injury and 100%=all plants dead) at 14 and 21 days after 50% emergence in the untreated controls. Fresh weights (biomass above soil level) were also recorded 21 days after 50% emergence in the untreated controls. Plants were fully turgid at the time of harvest.
(§7) Assessment data was recorded on pro-forma sheets and entered into Gylling ARM 7 software. EC50 values were calculated using audited means data from the final assessments (21 day). Gylling ARM 7.0 software used a simple probit—maximum likelihood estimation method with 99% confidence level. The EC50 values generated were then visually checked against the means data table to verify they appeared correct.

Stellaria media = experiment: as above; details: for Mean Final Foliar Fresh Weights Expressed as Percentage of Untreated Controls / Mean Final Foliar Fresh Weights: Stellaria media; for Mean Final Foliar Fresh Weights: 21 days after 50% emergence, untreated 1.44
Procedure: as §1, §2, §3, §4, §5, §6, §7

Matricaria sp. = experiment: Field trial in winter oilseed rape, pre-emergence, % control and ground cover
Procedure: (§8) Field trials were conducted on various moncotyledonous weeds and dicotyledonous weeds and the effect of D-isomer of Napropamide was studied to understand the selective and effective control of dicotyledonous weeds over monocotyledonous weeds. The effect of D-isomer of Napropamide in comparison to racemic napropramide and untreated was studied, which is concluded hereinbelow:
(§9) Several small plot replicated trials were carried out to evaluate and/or compare the efficacy of D-Napropamide against a range of indicated annual broadleaved and grass weed species in the indicated crops. No problems were encountered during mixing or application of any of the product formulations or tank mixtures under test.
(§10) In each of the reported data, the homogeneity of variance was tested by Bartlett's test. Wherever this test indicated no homogeneity of variance, the transformed values were used for analysis of variance. Assessment data was then analyzed using a two-way analysis of variance (ANOVA) on untransformed and transformed data. The probability of no significant differences occurring between treatment means was calculated as the F probability value (p(F)). A mean comparison test was only performed and reported when the treatment of F that was calculated during analysis of variance was significant at the observed significance level specified for the mean comparison test. Where the data was transformed, treatment means in the reports were presented in their detransformed state, with the appropriate letter test and mean descriptions (LSD and standard deviation) derived from the transformed ANOVA.
(§11) Trials were conducted to evaluate the selectivity and efficacy of D-isomer of Napropamide when applied pre-emergence to oilseed rape crop. The % control of weed was assessed at regular intervals.

Cirsium arvense = experiment: Field trial in winter oilseed rape, pre-emergence, % control
Procedure: as §8, §9, §10, §11

Aperaspica-venti = experiment: as above
Procedure: as §8, §9, §10, §11

Triticum aestivum = experiment: as above
Procedure: as §8, §9, §10, §11

Digitaria sanguinalis = experiment: Plot trial, % control of Digitaria sanguinalis
Procedure: as §8, §9
as §10, with “ANOVA. […]” for “ANOVA.”

[1] = rate 0.1575 kg/Ha pre-emergence
[2] = monocotyledonous weeds (Poa annua EC50)
[3] = dicotyledonous weeds (Stellaria media EC50)

CCN(CC)C(=O)[C@@H](C)Oc1cccc2ccccc12 [D-Napropamide, D-(−)-N,N-diethyl-2-(α-naphthoxy)propionamide]
EC50 based on the final fresh weights (Poa annua; Poa annua (monocot), 21 day assessment, probit): 0.44 kg/Ha | Mean Final Foliar Fresh Weights Expressed as Percentage of Untreated Controls (Poa annua; rate 0.1575 kg/Ha): 100% | Mean Final Foliar Fresh Weights (Poa annua; [1]): 0.93 g | Mean Final Foliar Fresh Weights Expressed as Percentage of Untreated Controls (Poa annua; rate 0.315 kg/Ha): 71% | Mean Final Foliar Fresh Weights (Poa annua; rate 0.315 kg/Ha pre-emergence): 0.64 g | Mean Final Foliar Fresh Weights Expressed as Percentage of Untreated Controls (Poa annua; rate 0.630 kg/Ha): 50% | Mean Final Foliar Fresh Weights (Poa annua; rate 0.63 kg/Ha pre-emergence): 0.45 g | more active than L-Napropamide (Poa annua; [2]): ~2.86 times | times more active than racemic Napropamide (Poa annua; [2]): about 1.63 times | EC50 based on the final fresh weights (Stellaria media; Stellaria media (dicot), 21 day assessment, probit): 0.054 kg/Ha | Mean Final Foliar Fresh Weights Expressed as Percentage of Untreated Controls (Stellaria media; rate 0.1575 kg/Ha): 35% | Mean Final Foliar Fresh Weights (Stellaria media; [1]): 0.498 g | Mean Final Foliar Fresh Weights Expressed as Percentage of Untreated Controls (Stellaria media; rate 0.315 kg/Ha): 14% | Mean Final Foliar Fresh Weights (Stellaria media; rate 0.315 kg/Ha pre-emergence): 0.198 g | Mean Final Foliar Fresh Weights Expressed as Percentage of Untreated Controls (Stellaria media; rate 0.630 kg/Ha): 12% | Mean Final Foliar Fresh Weights (Stellaria media; rate 0.63 kg/Ha pre-emergence): 0.17 g | times more active than L-Napropamide (Stellaria media; [3]): ~23.33 times | times more active than racemic Napropamide (Stellaria media; [3]): about 4.07 times | Percentage ground cover %, value in brackets (untreated 0.0%) (Matricaria sp.; 450 g/L @ 2.0 L/Ha): (99.3%) | Percentage Control at 49 DAA (Matricaria sp.; 450 g/L @ 2.0 L/Ha, oilseed rape): 97.00% | Percentage ground cover % (Matricaria sp.; 450 g/L @ 2.0 L/Ha, untreated 4.50): 0.30% | Conclusion: efficacy in control vis-à-vis Napropamide at an equivalent dosage (Matricaria sp.; Matricaria sp., dicot, oilseed rape): superior efficacy | Percentage Control at 51 DAA (Cirsium arvense; 450 g/L @ 1.6 L/Ha): 100.00% | Conclusion: control of the weed at equivalent dosage (Cirsium arvense; Cirsium arvense, dicot): superior control | Percentage Control at 63 DAA (Aperaspica-venti; 450 g/L @ 1.4 L/Ha): 35.00% | Percentage Control at 63 DAA (Aperaspica-venti; 450 g/L @ 1.6 L/Ha): 58.75% | Percentage Control at 63 DAA (Aperaspica-venti; 450 g/L @ 1.6 L/Ha, listed as D Napropamide): 52.50% | Conclusion: efficacy in control vis-à-vis Napropamide at an equivalent dosage (Aperaspica-venti; Aperaspica-venti, monocot): poor efficacy | Percentage Control at 51 DAA (Triticum aestivum; 450 g/L @ 1.4 L/Ha): 0.00% | Percentage Control at 72 DAA (Triticum aestivum; 450 g/L @ 1.4 L/Ha): 0.00% | Percentage Control at 51 DAA (Triticum aestivum; 450 g/L @ 1.6 L/Ha): 0.00% | Percentage Control at 72 DAA (Triticum aestivum; 450 g/L @ 1.6 L/Ha): 0.00% | Percentage Control at 51 DAA (Triticum aestivum; 450 g/L @ 1.8 L/Ha): 0.00% | Percentage Control at 72 DAA (Triticum aestivum; 450 g/L @ 1.8 L/Ha): 0.00% | Percentage Control at 51 DAA (Triticum aestivum; 450 g/L @ 2.0 L/Ha): 0.00% | Percentage Control at 72 DAA (Triticum aestivum; 450 g/L @ 2.0 L/Ha): 0.00% | Conclusion: control of the weed (Triticum aestivum; Triticum aestivum, monocot): negligible control | % Control (Digitaria sanguinalis; 3 L/Ha of 450 g/L formulation, 16 DAA): 7.50% | % Control (Digitaria sanguinalis; 3 L/Ha of 450 g/L formulation, 33 DAA): 8.75% | % Control (Digitaria sanguinalis; 4.5 L/Ha of 450 g/L formulation, 16 DAA): 10.00% | % Control (Digitaria sanguinalis; 4.5 L/Ha of 450 g/L formulation, 33 DAA): 10.00% | % Control (Digitaria sanguinalis; 6 L/Ha of 450 g/L formulation, 16 DAA): 10.00% | % Control (Digitaria sanguinalis; 6 L/Ha of 450 g/L formulation, 33 DAA): 12.50% | % Control (Digitaria sanguinalis; 7.5 L/Ha of 450 g/L formulation, 16 DAA): 10.00% | % Control (Digitaria sanguinalis; 7.5 L/Ha of 450 g/L formulation, 33 DAA): 11.25% | % Control (Digitaria sanguinalis; 9 L/Ha of 450 g/L formulation, 16 DAA): 10.00% | % Control (Digitaria sanguinalis; 9 L/Ha of 450 g/L formulation, 33 DAA): 18.75% | Conclusion: efficacy in comparison to Napropamide in the control of monocotyledonous weeds (Digitaria sanguinalis; Digitaria sanguinalis): only as efficacious or less

Reference: patent US9307765B2, “Selective weed control using D-napropamide” (UPL Limited, priority 2013, dated 2016)
